From the NIST ThermoML archive (doi:10.1016/j.jct.2013.10.038)
Numbers after ± are expanded uncertainties.

Columns and labels:
[1] = activity coefficient (dimensionless); of the first substance listed, at infinite dilution; xn = mol fraction of the nth substance listed; settings: 101 kPa, Liquid, Chromatography, x1 = 0
[2] = 101.33 kPa, Liquid, Pycnometric method

| SMILES | activity coefficient ([1]; 303.15 K) | activity coefficient ([1]; 313.15 K) | activity coefficient ([1]; 323.15 K) | activity coefficient ([1]; 333.15 K) | activity coefficient ([1]; 343.15 K) | activity coefficient ([1]; 353.15 K) | activity coefficient ([1]; 363.15 K) | mass density ([2]; 293.15 K) [kg/m3] | mass density ([2]; 303.15 K) [kg/m3] | mass density ([2]; 313.15 K) [kg/m3] | mass density ([2]; 323.15 K) [kg/m3] | mass density ([2]; 333.15 K) [kg/m3] | mass density ([2]; 343.15 K) [kg/m3] |
| --- | --- | --- | --- | --- | --- | --- | --- | --- | --- | --- | --- | --- | --- |
| CCO [ethanol] + CCCCCCn1cc[n+](C)c1.O=C([O-])C(F)(F)F | 0.21 ± 0.03 | 0.22 ± 0.03 | 0.22 ± 0.03 | 0.23 ± 0.04 | 0.24 ± 0.04 | 0.26 ± 0.04 | 0.27 ± 0.04 |  |  |  |  |  |  |
| C1CCOC1 [tetrahydrofuran] + CCCCCCn1cc[n+](C)c1.O=C([O-])C(F)(F)F | 1.95 ± 0.2 | 1.96 ± 0.21 | 1.98 ± 0.21 | 2 ± 0.21 | 2.02 ± 0.21 | 2.02 ± 0.21 | 2.05 ± 0.22 |  |  |  |  |  |  |
| ClC(Cl)Cl [trichloromethane] + CCCCCCn1cc[n+](C)c1.O=C([O-])C(F)(F)F | 0.08 ± 0.03 | 0.12 ± 0.03 | 0.22 ± 0.03 | 0.3 ± 0.04 | 0.45 ± 0.05 | 0.68 ± 0.07 | 1.06 ± 0.11 |  |  |  |  |  |  |
| CCOC(C)=O [ethyl acetate] + CCCCCCn1cc[n+](C)c1.O=C([O-])C(F)(F)F | 2.64 ± 0.28 | 2.8 ± 0.29 | 2.91 ± 0.31 | 3.02 ± 0.32 | 3.12 ± 0.33 | 3.15 ± 0.33 | 3.44 ± 0.36 |  |  |  |  |  |  |
| Brc1ccccc1 [bromobenzene] + CCCCCCn1cc[n+](C)c1.O=C([O-])C(F)(F)F | 2.18 ± 0.23 | 2.2 ± 0.23 | 2.24 ± 0.24 | 2.29 ± 0.24 | 2.32 ± 0.24 | 2.36 ± 0.25 | 2.41 ± 0.25 |  |  |  |  |  |  |
| ClCCl [dichloromethane] + CCCCCCn1cc[n+](C)c1.O=C([O-])C(F)(F)F | 0.64 ± 0.07 | 0.65 ± 0.07 | 0.67 ± 0.07 | 0.68 ± 0.07 | 0.7 ± 0.07 | 0.72 ± 0.08 | 0.73 ± 0.08 |  |  |  |  |  |  |
| Cc1ccccc1 [toluene] + CCCCCCn1cc[n+](C)c1.O=C([O-])C(F)(F)F | 2.97 ± 0.31 | 3.02 ± 0.32 | 3.06 ± 0.32 | 3.1 ± 0.33 | 3.14 ± 0.33 | 3.17 ± 0.33 | 3.2 ± 0.34 |  |  |  |  |  |  |
| CC1CCCCC1 [methylcyclohexane] + CCCCCCn1cc[n+](C)c1.O=C([O-])C(F)(F)F |  |  | 19.8 ± 2.1 |  |  |  |  |  |  |  |  |  |  |
| C1CCCCC1 [cyclohexane] + CCCCCCn1cc[n+](C)c1.O=C([O-])C(F)(F)F |  |  | 16.9 ± 1.8 |  |  |  |  |  |  |  |  |  |  |
| C1=CCCCC1 [cyclohexene] + CCCCCCn1cc[n+](C)c1.O=C([O-])C(F)(F)F |  |  | 9.6 ± 1 |  |  |  |  |  |  |  |  |  |  |
| CC(C)O [propan-2-ol] + CCCCCCn1cc[n+](C)c1.O=C([O-])C(F)(F)F | 0.34 ± 0.04 | 0.35 ± 0.04 | 0.36 ± 0.04 | 0.38 ± 0.05 | 0.39 ± 0.05 | 0.4 ± 0.05 | 0.42 ± 0.05 |  |  |  |  |  |  |
| CO [methanol] + CCCCCCn1cc[n+](C)c1.O=C([O-])C(F)(F)F | 0.1 ± 0.03 | 0.11 ± 0.03 | 0.12 ± 0.03 | 0.13 ± 0.03 | 0.13 ± 0.03 | 0.16 ± 0.03 | 0.16 ± 0.03 |  |  |  |  |  |  |
| CC(C)=O [acetone] + CCCCCCn1cc[n+](C)c1.O=C([O-])C(F)(F)F | 1.69 ± 0.18 | 1.69 ± 0.18 | 1.68 ± 0.18 | 1.68 ± 0.18 | 1.67 ± 0.17 | 1.67 ± 0.17 | 1.67 ± 0.17 |  |  |  |  |  |  |
| CCCCCCn1cc[n+](C)c1.O=C([O-])C(F)(F)F [1-hexyl-3-methylimidazolium trifluoroacetate] |  |  |  |  |  |  |  | 1153.5 ± 1.1 | 1146.6 ± 1.1 | 1140.7 ± 1.1 | 1134.4 ± 1.1 | 1127.8 ± 1.1 | 1121.6 ± 1.1 |
| C=Cc1ccccc1 [styrene] + CCCCCCn1cc[n+](C)c1.O=C([O-])C(F)(F)F | 2.28 ± 0.24 | 2.39 ± 0.25 | 2.46 ± 0.26 | 2.53 ± 0.27 | 2.61 ± 0.27 | 2.68 ± 0.28 | 2.73 ± 0.29 |  |  |  |  |  |  |
| Cc1ccccc1C [1,2-dimethylbenzene] + CCCCCCn1cc[n+](C)c1.O=C([O-])C(F)(F)F | 3.54 ± 0.37 | 3.67 ± 0.39 | 3.83 ± 0.4 | 3.98 ± 0.42 | 4.1 ± 0.43 | 4.13 ± 0.43 | 4.53 ± 0.48 |  |  |  |  |  |  |

| SMILES | activity coefficient ([1]; 303.15 K) | activity coefficient ([1]; 313.15 K) | activity coefficient ([1]; 323.15 K) | activity coefficient ([1]; 333.15 K) | activity coefficient ([1]; 343.15 K) | activity coefficient ([1]; 353.15 K) | activity coefficient ([1]; 363.15 K) | mass density ([2]; 293.15 K) [kg/m3] | mass density ([2]; 303.15 K) [kg/m3] | mass density ([2]; 313.15 K) [kg/m3] | mass density ([2]; 323.15 K) [kg/m3] | mass density ([2]; 333.15 K) [kg/m3] | mass density ([2]; 343.15 K) [kg/m3] |
| --- | --- | --- | --- | --- | --- | --- | --- | --- | --- | --- | --- | --- | --- |
| ClC(Cl)(Cl)Cl [tetrachloromethane] + CCCCCCn1cc[n+](C)c1.O=C([O-])C(F)(F)F | 0.62 ± 0.07 | 0.7 ± 0.07 | 0.8 ± 0.08 | 0.91 ± 0.09 | 1.02 ± 0.1 | 1.19 ± 0.12 | 1.32 ± 0.14 |  |  |  |  |  |  |
| CCCO [propan-1-ol] + CCCCCCn1cc[n+](C)c1.O=C([O-])C(F)(F)F |  | 0.24 ± 0.04 | 0.25 ± 0.04 | 0.26 ± 0.04 | 0.27 ± 0.04 | 0.29 ± 0.04 | 0.31 ± 0.04 |  |  |  |  |  |  |
| Clc1ccccc1 [chlorobenzene] + CCCCCCn1cc[n+](C)c1.O=C([O-])C(F)(F)F | 2.27 ± 0.24 | 2.26 ± 0.24 | 2.24 ± 0.24 | 2.22 ± 0.23 | 2.2 ± 0.23 | 2.2 ± 0.23 | 2.2 ± 0.23 |  |  |  |  |  |  |
| CCc1ccccc1 [ethylbenzene] + CCCCCCn1cc[n+](C)c1.O=C([O-])C(F)(F)F | 4.1 ± 0.43 | 4.16 ± 0.44 | 4.22 ± 0.44 | 4.25 ± 0.45 | 4.32 ± 0.45 | 4.34 ± 0.46 | 4.36 ± 0.46 |  |  |  |  |  |  |
| CC(C)CO [2-methyl-1-propanol] + CCCCCCn1cc[n+](C)c1.O=C([O-])C(F)(F)F |  |  | 0.29 ± 0.04 | 0.3 ± 0.04 | 0.3 ± 0.04 | 0.31 ± 0.04 | 0.31 ± 0.04 |  |  |  |  |  |  |
| CCCCCC [hexane] + CCCCCCn1cc[n+](C)c1.O=C([O-])C(F)(F)F |  |  | 29 ± 3 |  |  |  |  |  |  |  |  |  |  |
| ClCCCl [1,2-dichloroethane] + CCCCCCn1cc[n+](C)c1.O=C([O-])C(F)(F)F | 0.62 ± 0.07 | 0.75 ± 0.08 | 0.9 ± 0.09 | 1.1 ± 0.11 | 1.26 ± 0.13 | 1.62 ± 0.17 | 1.67 ± 0.17 |  |  |  |  |  |  |
| Cc1ccc(C)cc1 [1,4-dimethylbenzene] + CCCCCCn1cc[n+](C)c1.O=C([O-])C(F)(F)F | 4.12 ± 0.43 | 4.18 ± 0.44 | 4.24 ± 0.45 | 4.29 ± 0.45 | 4.32 ± 0.45 | 4.42 ± 0.46 | 4.43 ± 0.47 |  |  |  |  |  |  |
| C1COCCO1 [1,4-dioxane] + CCCCCCn1cc[n+](C)c1.O=C([O-])C(F)(F)F | 1.91 ± 0.2 | 1.92 ± 0.2 | 1.93 ± 0.2 | 1.94 ± 0.2 | 1.95 ± 0.2 | 1.95 ± 0.2 | 1.97 ± 0.21 |  |  |  |  |  |  |
| CCCCCCCC [octane] + CCCCCCn1cc[n+](C)c1.O=C([O-])C(F)(F)F |  |  | 49.6 ± 5.2 |  |  |  |  |  |  |  |  |  |  |
| c1ccccc1 [benzene] + CCCCCCn1cc[n+](C)c1.O=C([O-])C(F)(F)F | 2.05 ± 0.22 | 2.07 ± 0.22 | 2.09 ± 0.22 | 2.1 ± 0.22 | 2.12 ± 0.22 | 2.13 ± 0.22 | 2.14 ± 0.22 |  |  |  |  |  |  |
| CCCCCCC [heptane] + CCCCCCn1cc[n+](C)c1.O=C([O-])C(F)(F)F |  |  | 27 ± 2.8 |  |  |  |  |  |  |  |  |  |  |
| CCCCCCCCC [nonane] + CCCCCCn1cc[n+](C)c1.O=C([O-])C(F)(F)F |  |  | 64.2 ± 6.8 |  |  |  |  |  |  |  |  |  |  |
| Cc1cccc(C)c1 [1,3-dimethylbenzene] + CCCCCCn1cc[n+](C)c1.O=C([O-])C(F)(F)F | 4.19 ± 0.44 | 4.25 ± 0.45 | 4.34 ± 0.46 | 4.39 ± 0.46 | 4.42 ± 0.46 | 4.53 ± 0.48 | 4.56 ± 0.48 |  |  |  |  |  |  |
| CC#N [acetonitrile] + CCCCCCn1cc[n+](C)c1.O=C([O-])C(F)(F)F | 1.01 ± 0.1 | 1.05 ± 0.11 | 1.11 ± 0.11 | 1.16 ± 0.12 | 1.22 ± 0.13 | 1.28 ± 0.13 | 1.32 ± 0.14 |  |  |  |  |  |  |
| CC(C)CC(C)(C)C [2,2,4-trimethylpentane] + CCCCCCn1cc[n+](C)c1.O=C([O-])C(F)(F)F |  |  | 46.8 ± 4.9 |  |  |  |  |  |  |  |  |  |  |
